According to ChEMBL document CHEMBL1201862, “PubChem BioAssay data set” (2004):
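Growth conditions: 96-well plates. Treatment: test compound, 48 hours, 5 concentrations. Analysis: linear interpolation between bracketing concentrations; unreached endpoints set to highest concentration. GI50 marks 50% less growth.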 Activity calls are given as the source filed them. Rule as the data show it: active = GI50 up to about 1.1 µM and inactive = higher.

Key:
Assay in all cases: NCI tumour cell line growth inhibition, 48 h
SNB-19 = test system: SNB-19
T47D = test system: T47D
UACC-257 = test system: UACC-257
COLO 205 = test system: COLO 205
HL-60 = test system: HL-60
OVCAR-4 = test system: OVCAR-4
RPMI-8226 = test system: RPMI-8226
HCT-116 = test system: HCT-116
CAKI-1 = test system: CAKI-1
NCI-H460 = test system: NCI-H460
OVCAR-3 = test system: OVCAR-3
SK-MEL-5 = test system: SK-MEL-5
SK-OV-3 = test system: SK-OV-3
LOX IMVI = test system: LOX IMVI
A498 = test system: A498
UO-31 = test system: UO-31
TK-10 = test system: TK-10
HOP-62 = test system: HOP-62
NCI-H522 = test system: NCI-H522

SMILES	GI50 (SNB-19)	GI50 (T47D)	GI50 (UACC-257)	GI50 (COLO 205)	GI50 (HL-60)	GI50 (OVCAR-4)	GI50 (RPMI-8226)	GI50 (HCT-116)	GI50 (CAKI-1)	GI50 (NCI-H460)	GI50 (OVCAR-3)	GI50 (SK-MEL-5)	GI50 (SK-OV-3)	GI50 (LOX IMVI)	GI50 (A498)	GI50 (UO-31)	GI50 (TK-10)	GI50 (HOP-62)	GI50 (NCI-H522)
N=c1oc2ccc(Cl)cc2cc1C(N)=O	26.7 µM (inactive)	24.8 µM (inactive)	45.4 µM (inactive)	36.6 µM (inactive)	54.2 µM (inactive)	37.1 µM (inactive)	66.4 µM (inactive)	21.2 µM (inactive)	34.1 µM (inactive)	30.8 µM (inactive)	18.2 µM (inactive)	20.5 µM (inactive)	> 100 µM (inactive)	31.8 µM (inactive)	32.7 µM (inactive)	–	–	–	–
COC(=O)c1cc2c3c(ccc2[nH]1)N(C(=O)c1cc2cc(OC)c(OC)c(OC)c2[nH]1)CC3CCl (stereo not given)	> 100 µM (inactive)	> 100 µM (inactive)	81.5 µM (inactive)	2.66 µM (inactive)	1.48 µM (inactive)	8.34 µM (inactive)	1.69 µM (inactive)	4.46 µM (inactive)	–	2.79 µM (inactive)	> 24.4 µM (inactive)	2.23 µM (inactive)	> 100 µM (inactive)	4.98 µM (inactive)	42.5 µM (inactive)	7.59 µM (inactive)	> 54.2 µM (inactive)	> 21.8 µM (inactive)	2.9 µM (inactive)
Cc1ccc2c(=O)c(-c3nnc(N)s3)c[nH]c2n1	> 100 µM (inactive)	> 100 µM (inactive)	> 100 µM (inactive)	> 100 µM (inactive)	> 100 µM (inactive)	> 100 µM (inactive)	> 100 µM (inactive)	> 100 µM (inactive)	> 100 µM (inactive)	> 100 µM (inactive)	> 100 µM (inactive)	> 100 µM (inactive)	–	> 100 µM (inactive)	> 100 µM (inactive)	> 100 µM (inactive)	> 100 µM (inactive)	18.6 µM (inactive)	> 100 µM (inactive)
COc1ccc2c(C=O)c3n(c(=O)c2c1OC)CCc1cc2c(cc1-3)OCO2	76.4 µM (inactive)	10.8 µM (inactive)	32.2 µM (inactive)	15.9 µM (inactive)	29.7 µM (inactive)	> 100 µM (inactive)	3.68 µM (inactive)	26.3 µM (inactive)	> 100 µM (inactive)	53.6 µM (inactive)	80.5 µM (inactive)	24 µM (inactive)	> 100 µM (inactive)	–	> 100 µM (inactive)	51.8 µM (inactive)	96.8 µM (inactive)	> 100 µM (inactive)	30.4 µM (inactive)
CC(=O)O[C@H]1C(=O)[C@@]2(C)[C@H]([C@H](OC(=O)c3ccc([N+](=O)[O-])cc3)[C@]3(O)C[C@H](OC(=O)[C@H](O)[C@@H](NC(=O)c4ccccc4)c4ccccc4)C(C)=C1C3(C)C)[C@]1(OC(C)=O)CO[C@@H]1C[C@@H]2O	> 25 µM (inactive)	> 25 µM (inactive)	> 25 µM (inactive)	> 25 µM (inactive)	> 25 µM (inactive)	> 25 µM (inactive)	> 25 µM (inactive)	> 25 µM (inactive)	> 25 µM (inactive)	> 25 µM (inactive)	–	> 25 µM (inactive)	> 25 µM (inactive)	–	> 25 µM (inactive)	> 25 µM (inactive)	> 25 µM (inactive)	> 25 µM (inactive)	> 25 µM (inactive)
CCOc1cc2c(cc1O)C(N)C[C@@H]1[C@@H]2CC[C@]2(C)[C@@H](O)CC[C@@H]12 (stereo not given in full)	46.7 µM (inactive)	84.1 µM (inactive)	38.6 µM (inactive)	52.7 µM (inactive)	18.6 µM (inactive)	30.8 µM (inactive)	–	–	32.9 µM (inactive)	37.6 µM (inactive)	–	30.2 µM (inactive)	–	34.2 µM (inactive)	34.8 µM (inactive)	36.9 µM (inactive)	83 µM (inactive)	46.7 µM (inactive)	33.5 µM (inactive)
Cn1ccc(C(=O)N2CCSC2=S)c(OCc2ccccc2)c1=O	> 100 µM (inactive)	66.7 µM (inactive)	> 100 µM (inactive)	> 100 µM (inactive)	54.8 µM (inactive)	> 100 µM (inactive)	> 100 µM (inactive)	> 100 µM (inactive)	72.3 µM (inactive)	> 100 µM (inactive)	–	> 100 µM (inactive)	–	> 100 µM (inactive)	> 100 µM (inactive)	67.8 µM (inactive)	> 100 µM (inactive)	–	39.2 µM (inactive)
C=Cc1cc(OC)c2c(c1)c(=O)oc1c2cc(OC)c2c(O)ccc(C3OC(C)C(O)C(C)(O)C3O)c21 (stereo not given)	0.0372 µM (active)	0.00147 µM (active)	–	–	0.0225 µM (active)	0.0271 µM (active)	0.0294 µM (active)	0.0235 µM (active)	0.0462 µM (active)	0.0225 µM (active)	0.0548 µM (active)	–	0.0445 µM (active)	0.0225 µM (active)	0.0444 µM (active)	0.0454 µM (active)	0.00249 µM (active)	0.0225 µM (active)	–
Cc1ccc2nc(-c3ccc(N)c(Br)c3)sc2c1	81.8 µM (inactive)	0.655 µM (active)	20 µM (inactive)	55.8 µM (inactive)	17.4 µM (inactive)	33.5 µM (inactive)	–	31.4 µM (inactive)	34.8 µM (inactive)	5.6 µM (inactive)	10.1 µM (inactive)	79.1 µM (inactive)	22.5 µM (inactive)	13.2 µM (inactive)	> 100 µM (inactive)	5.27 µM (inactive)	–	13.5 µM (inactive)	0.875 µM (active)
O=C(Cn1c(C(=O)/C=C/c2cccs2)nc2ccccc21)c1ccc(Cl)cc1	25.5 µM (inactive)	36.3 µM (inactive)	17.9 µM (inactive)	17.5 µM (inactive)	18.3 µM (inactive)	14.6 µM (inactive)	8.05 µM (inactive)	16.6 µM (inactive)	–	10.5 µM (inactive)	15.5 µM (inactive)	14.4 µM (inactive)	32.9 µM (inactive)	13.9 µM (inactive)	19.9 µM (inactive)	24.1 µM (inactive)	27 µM (inactive)	25.9 µM (inactive)	–
CC1=Nc2sc3c(c2C2=NCCN12)CCCC3	39.6 µM (inactive)	32.7 µM (inactive)	20.2 µM (inactive)	32.3 µM (inactive)	22.8 µM (inactive)	42.4 µM (inactive)	19.8 µM (inactive)	20.9 µM (inactive)	22.9 µM (inactive)	19.7 µM (inactive)	28.2 µM (inactive)	28.2 µM (inactive)	–	17.6 µM (inactive)	39.9 µM (inactive)	17.1 µM (inactive)	36.8 µM (inactive)	40.6 µM (inactive)	19.5 µM (inactive)
O=C(C=P(c1ccccc1)(c1ccccc1)c1ccccc1)c1ccc(-c2cccc([N+](=O)[O-])c2)cc1	5.07 µM (inactive)	3.85 µM (inactive)	3.27 µM (inactive)	1.75 µM (inactive)	2.57 µM (inactive)	2.61 µM (inactive)	1.87 µM (inactive)	2.21 µM (inactive)	2.74 µM (inactive)	1.91 µM (inactive)	2.98 µM (inactive)	2.22 µM (inactive)	4.03 µM (inactive)	2.11 µM (inactive)	3.02 µM (inactive)	2.09 µM (inactive)	3.23 µM (inactive)	5.86 µM (inactive)	–
CCCCOC(=O)NC(c1ccccc1)C(O)C(=O)OC1C[C@@]2(O)C(OC(=O)c3ccccc3)C3[C@](C)(C(=O)[C@H](OC(C)=O)C(=C1C)C2(C)C)[C@@H](O)C[C@H]1OC[C@@]31OC(C)=O (stereo not given in full)	0.0361 µM (active)	0.175 µM (active)	–	0.00652 µM (active)	0.00345 µM (active)	2.92 µM (inactive)	0.00377 µM (active)	0.00216 µM (active)	–	0.002 µM (active)	0.00906 µM (active)	0.0102 µM (active)	0.0205 µM (active)	0.00427 µM (active)	0.0056 µM (active)	0.176 µM (active)	0.101 µM (active)	0.0239 µM (active)	0.00234 µM (active)
Cc1ccc(S(=O)(=O)c2c(O)c3ccccc3n(C)c2=O)cc1	> 100 µM (inactive)	> 100 µM (inactive)	> 100 µM (inactive)	> 100 µM (inactive)	> 100 µM (inactive)	> 100 µM (inactive)	> 100 µM (inactive)	> 100 µM (inactive)	> 100 µM (inactive)	> 100 µM (inactive)	> 100 µM (inactive)	> 100 µM (inactive)	> 100 µM (inactive)	–	> 100 µM (inactive)	> 100 µM (inactive)	–	> 100 µM (inactive)	–
CCOC(=O)c1cc(=O)c2ccnc3c2n1CCS3	50.2 µM (inactive)	17.6 µM (inactive)	51.6 µM (inactive)	> 100 µM (inactive)	> 100 µM (inactive)	–	–	> 100 µM (inactive)	> 100 µM (inactive)	> 100 µM (inactive)	61.7 µM (inactive)	> 100 µM (inactive)	> 100 µM (inactive)	57.4 µM (inactive)	> 100 µM (inactive)	57.5 µM (inactive)	> 100 µM (inactive)	48.5 µM (inactive)	22.7 µM (inactive)
COP(C)(=O)C(Cc1c[nH]c2ccccc12)NC(=O)OCc1ccccc1 (stereo not given)	> 100 µM (inactive)	> 100 µM (inactive)	> 100 µM (inactive)	> 100 µM (inactive)	> 100 µM (inactive)	> 100 µM (inactive)	> 100 µM (inactive)	> 100 µM (inactive)	> 100 µM (inactive)	> 100 µM (inactive)	> 100 µM (inactive)	> 100 µM (inactive)	> 100 µM (inactive)	> 100 µM (inactive)	> 100 µM (inactive)	> 100 µM (inactive)	> 100 µM (inactive)	> 100 µM (inactive)	–
